Assays:
[1] = target: Transcription intermediary factor 1-alpha (Homo sapiens, UniProt O15164)
Homo sapiens [2] = organism: Homo sapiens; details: dose 10.0 µM
[3] = target: Protein polybromo-1 (Homo sapiens) (UniProt Q86U86); details: dose 10.0 µM
[4] = target: CREB-binding protein (Homo sapiens) (UniProt Q92793); details: dose 10.0 µM
Homo sapiens [5] = organism: Homo sapiens; details: dose 10.0 µM; remark: listed apart in the source
Peregrin (Homo sapiens) [6] = target: T1, Peregrin (Homo sapiens) (UniProt P55201); details: dose 10.0 µM
T1 sequence (whole entry): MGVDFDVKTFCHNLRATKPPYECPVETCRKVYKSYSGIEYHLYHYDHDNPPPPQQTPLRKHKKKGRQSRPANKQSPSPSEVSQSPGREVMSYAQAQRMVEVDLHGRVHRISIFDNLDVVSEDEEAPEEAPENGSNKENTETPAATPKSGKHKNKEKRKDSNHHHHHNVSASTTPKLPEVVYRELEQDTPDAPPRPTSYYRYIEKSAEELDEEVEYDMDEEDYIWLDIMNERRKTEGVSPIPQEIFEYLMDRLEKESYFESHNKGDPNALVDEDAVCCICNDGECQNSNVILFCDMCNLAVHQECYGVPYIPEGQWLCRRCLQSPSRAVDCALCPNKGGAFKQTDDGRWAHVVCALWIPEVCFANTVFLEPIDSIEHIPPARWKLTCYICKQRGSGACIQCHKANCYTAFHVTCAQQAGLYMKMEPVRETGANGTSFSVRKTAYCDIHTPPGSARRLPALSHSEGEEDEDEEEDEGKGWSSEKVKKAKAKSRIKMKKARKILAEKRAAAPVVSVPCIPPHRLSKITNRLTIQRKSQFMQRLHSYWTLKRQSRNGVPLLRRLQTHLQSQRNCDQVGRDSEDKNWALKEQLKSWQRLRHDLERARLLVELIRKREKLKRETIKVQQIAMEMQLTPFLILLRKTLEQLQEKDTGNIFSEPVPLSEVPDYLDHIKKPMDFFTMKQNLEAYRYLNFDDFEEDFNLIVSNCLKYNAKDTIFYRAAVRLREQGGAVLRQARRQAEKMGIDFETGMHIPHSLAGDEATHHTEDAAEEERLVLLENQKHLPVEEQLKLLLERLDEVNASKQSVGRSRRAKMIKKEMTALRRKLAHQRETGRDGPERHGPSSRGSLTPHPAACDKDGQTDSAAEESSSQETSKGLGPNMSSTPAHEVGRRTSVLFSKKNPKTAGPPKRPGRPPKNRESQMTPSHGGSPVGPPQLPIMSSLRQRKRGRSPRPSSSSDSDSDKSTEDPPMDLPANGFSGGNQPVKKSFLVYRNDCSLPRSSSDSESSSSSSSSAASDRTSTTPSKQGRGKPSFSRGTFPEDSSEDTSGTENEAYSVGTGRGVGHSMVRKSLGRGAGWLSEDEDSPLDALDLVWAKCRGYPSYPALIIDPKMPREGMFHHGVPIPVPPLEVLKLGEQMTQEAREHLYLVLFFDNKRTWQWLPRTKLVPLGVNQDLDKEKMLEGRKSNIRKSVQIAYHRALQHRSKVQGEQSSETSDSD

[7] = target: Bromodomain-containing protein 2 (Homo sapiens) (UniProt P25440); details: dose 10.0 µM
Chain of Bromodomain-containing protein 2 (Homo sapiens) (P25440 whole entry, looked up): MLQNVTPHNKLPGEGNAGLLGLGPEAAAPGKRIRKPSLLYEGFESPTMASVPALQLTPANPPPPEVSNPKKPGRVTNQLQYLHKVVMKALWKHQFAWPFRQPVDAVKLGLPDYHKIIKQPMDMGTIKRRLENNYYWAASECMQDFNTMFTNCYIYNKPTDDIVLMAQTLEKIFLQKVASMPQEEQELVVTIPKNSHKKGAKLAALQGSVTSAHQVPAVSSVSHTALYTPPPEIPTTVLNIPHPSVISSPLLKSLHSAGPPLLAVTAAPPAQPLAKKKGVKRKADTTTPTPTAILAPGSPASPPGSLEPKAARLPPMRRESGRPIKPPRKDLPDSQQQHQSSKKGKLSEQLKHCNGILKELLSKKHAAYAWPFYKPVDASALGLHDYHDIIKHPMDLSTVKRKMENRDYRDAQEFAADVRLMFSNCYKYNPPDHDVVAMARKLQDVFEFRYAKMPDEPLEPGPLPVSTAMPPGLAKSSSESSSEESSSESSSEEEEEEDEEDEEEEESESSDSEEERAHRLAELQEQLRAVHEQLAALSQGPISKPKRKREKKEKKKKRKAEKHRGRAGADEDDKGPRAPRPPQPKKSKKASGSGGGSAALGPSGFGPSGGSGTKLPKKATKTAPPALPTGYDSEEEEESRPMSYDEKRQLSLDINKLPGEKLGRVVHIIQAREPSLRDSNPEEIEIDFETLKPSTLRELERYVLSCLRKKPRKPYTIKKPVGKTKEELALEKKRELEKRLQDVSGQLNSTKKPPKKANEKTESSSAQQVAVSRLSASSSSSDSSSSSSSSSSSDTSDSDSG

[8] = target: T2, Bromodomain and PHD finger-containing protein 3 (Homo sapiens) (UniProt Q9ULD4); experiment: Binding affinity to BRPF3 (unknown origin) assessed as change in enthalpy at 12 uM by Isothermal titration calorimetry
T2 sequence (whole entry): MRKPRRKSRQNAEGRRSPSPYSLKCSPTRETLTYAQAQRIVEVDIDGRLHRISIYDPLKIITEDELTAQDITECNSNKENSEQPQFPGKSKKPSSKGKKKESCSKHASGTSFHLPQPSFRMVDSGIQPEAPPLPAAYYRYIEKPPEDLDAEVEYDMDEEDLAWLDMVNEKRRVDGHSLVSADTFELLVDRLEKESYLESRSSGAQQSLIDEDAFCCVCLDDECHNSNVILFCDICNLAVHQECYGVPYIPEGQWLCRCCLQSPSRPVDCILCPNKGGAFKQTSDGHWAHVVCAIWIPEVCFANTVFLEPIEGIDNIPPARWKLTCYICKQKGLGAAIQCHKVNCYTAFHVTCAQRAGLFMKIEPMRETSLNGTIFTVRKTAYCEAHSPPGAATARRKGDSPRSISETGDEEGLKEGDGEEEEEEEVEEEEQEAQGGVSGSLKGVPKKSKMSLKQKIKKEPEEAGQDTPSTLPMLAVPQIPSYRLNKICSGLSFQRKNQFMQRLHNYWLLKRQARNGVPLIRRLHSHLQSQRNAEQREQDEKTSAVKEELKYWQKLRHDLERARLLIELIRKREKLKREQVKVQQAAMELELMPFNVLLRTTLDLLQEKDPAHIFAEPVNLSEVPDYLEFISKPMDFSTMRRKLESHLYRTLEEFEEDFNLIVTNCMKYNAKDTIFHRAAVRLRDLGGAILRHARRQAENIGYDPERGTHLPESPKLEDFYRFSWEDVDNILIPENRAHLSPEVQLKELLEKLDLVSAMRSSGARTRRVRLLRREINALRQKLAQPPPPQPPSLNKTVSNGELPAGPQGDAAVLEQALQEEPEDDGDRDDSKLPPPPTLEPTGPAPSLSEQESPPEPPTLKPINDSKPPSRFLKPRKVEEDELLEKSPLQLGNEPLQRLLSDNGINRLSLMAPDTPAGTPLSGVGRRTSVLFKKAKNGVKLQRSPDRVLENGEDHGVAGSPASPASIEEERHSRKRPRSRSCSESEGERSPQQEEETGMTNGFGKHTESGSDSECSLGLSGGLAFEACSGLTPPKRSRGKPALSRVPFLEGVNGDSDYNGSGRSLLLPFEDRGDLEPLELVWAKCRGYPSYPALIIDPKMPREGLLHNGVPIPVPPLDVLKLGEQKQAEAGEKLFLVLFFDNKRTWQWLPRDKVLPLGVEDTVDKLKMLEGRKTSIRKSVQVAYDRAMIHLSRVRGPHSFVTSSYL

Peregrin (Homo sapiens) [9] = target: T1, Peregrin (Homo sapiens); experiment: Binding affinity to […] (unknown origin) assessed as change in gibbs free energy at 17 uM by Isothermal titration calorimetry
[10] = target: Tyrosine-protein kinase BAZ1B (Homo sapiens) (UniProt Q9UIG0); details: dose 10.0 µM
Chain of Tyrosine-protein kinase BAZ1B (Homo sapiens) (Q9UIG0 whole entry): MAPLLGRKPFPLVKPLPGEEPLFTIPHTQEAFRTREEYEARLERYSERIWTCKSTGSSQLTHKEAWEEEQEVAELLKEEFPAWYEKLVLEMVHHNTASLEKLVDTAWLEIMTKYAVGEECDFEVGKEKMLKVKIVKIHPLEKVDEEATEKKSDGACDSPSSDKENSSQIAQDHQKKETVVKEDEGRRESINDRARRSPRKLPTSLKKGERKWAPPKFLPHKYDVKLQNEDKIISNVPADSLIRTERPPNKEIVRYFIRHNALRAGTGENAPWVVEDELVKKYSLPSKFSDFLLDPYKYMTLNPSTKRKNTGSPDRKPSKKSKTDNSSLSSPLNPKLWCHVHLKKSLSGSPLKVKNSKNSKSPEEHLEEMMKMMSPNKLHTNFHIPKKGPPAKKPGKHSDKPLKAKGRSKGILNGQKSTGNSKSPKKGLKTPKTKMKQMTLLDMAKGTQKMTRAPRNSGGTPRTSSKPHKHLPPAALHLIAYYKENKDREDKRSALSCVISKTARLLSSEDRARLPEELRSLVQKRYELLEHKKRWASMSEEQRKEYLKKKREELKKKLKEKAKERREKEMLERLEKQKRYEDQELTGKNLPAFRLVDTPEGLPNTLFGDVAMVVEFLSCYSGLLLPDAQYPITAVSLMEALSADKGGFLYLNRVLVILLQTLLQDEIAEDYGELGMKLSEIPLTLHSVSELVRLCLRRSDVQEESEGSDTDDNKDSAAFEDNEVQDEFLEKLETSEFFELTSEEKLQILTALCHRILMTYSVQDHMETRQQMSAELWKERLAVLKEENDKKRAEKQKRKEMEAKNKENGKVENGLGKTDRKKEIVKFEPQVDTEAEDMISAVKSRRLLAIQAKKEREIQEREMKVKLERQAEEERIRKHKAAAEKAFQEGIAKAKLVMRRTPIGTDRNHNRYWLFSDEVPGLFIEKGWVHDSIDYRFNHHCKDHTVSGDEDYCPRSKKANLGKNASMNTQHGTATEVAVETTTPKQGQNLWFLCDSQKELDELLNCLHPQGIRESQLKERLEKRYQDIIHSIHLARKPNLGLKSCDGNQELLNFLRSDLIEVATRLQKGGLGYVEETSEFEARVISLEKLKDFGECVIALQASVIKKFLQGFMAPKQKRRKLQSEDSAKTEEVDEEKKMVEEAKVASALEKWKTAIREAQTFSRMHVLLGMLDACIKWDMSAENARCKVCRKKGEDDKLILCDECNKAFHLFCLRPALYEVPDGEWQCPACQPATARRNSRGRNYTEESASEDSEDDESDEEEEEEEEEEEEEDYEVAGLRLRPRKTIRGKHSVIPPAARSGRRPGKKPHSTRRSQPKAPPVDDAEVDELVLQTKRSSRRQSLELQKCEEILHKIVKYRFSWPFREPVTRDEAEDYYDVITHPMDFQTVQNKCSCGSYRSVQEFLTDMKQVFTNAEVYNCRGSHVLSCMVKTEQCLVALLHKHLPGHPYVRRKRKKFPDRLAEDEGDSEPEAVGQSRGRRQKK

[11] = target: Beta-2 adrenergic receptor (Homo sapiens) (UniProt P07550); experiment: Binding affinity to Beta2 (unknown origin) assessed as specific binding at 10 uM relative to control
[12] = target: Bromodomain adjacent to zinc finger domain protein 2B (Homo sapiens) (UniProt Q9UIF8); details: dose 10.0 µM
[13] = target: Bromodomain testis-specific protein (Homo sapiens) (UniProt Q58F21); details: dose 10.0 µM

Chain of Transcription intermediary factor 1-alpha (O15164 whole entry): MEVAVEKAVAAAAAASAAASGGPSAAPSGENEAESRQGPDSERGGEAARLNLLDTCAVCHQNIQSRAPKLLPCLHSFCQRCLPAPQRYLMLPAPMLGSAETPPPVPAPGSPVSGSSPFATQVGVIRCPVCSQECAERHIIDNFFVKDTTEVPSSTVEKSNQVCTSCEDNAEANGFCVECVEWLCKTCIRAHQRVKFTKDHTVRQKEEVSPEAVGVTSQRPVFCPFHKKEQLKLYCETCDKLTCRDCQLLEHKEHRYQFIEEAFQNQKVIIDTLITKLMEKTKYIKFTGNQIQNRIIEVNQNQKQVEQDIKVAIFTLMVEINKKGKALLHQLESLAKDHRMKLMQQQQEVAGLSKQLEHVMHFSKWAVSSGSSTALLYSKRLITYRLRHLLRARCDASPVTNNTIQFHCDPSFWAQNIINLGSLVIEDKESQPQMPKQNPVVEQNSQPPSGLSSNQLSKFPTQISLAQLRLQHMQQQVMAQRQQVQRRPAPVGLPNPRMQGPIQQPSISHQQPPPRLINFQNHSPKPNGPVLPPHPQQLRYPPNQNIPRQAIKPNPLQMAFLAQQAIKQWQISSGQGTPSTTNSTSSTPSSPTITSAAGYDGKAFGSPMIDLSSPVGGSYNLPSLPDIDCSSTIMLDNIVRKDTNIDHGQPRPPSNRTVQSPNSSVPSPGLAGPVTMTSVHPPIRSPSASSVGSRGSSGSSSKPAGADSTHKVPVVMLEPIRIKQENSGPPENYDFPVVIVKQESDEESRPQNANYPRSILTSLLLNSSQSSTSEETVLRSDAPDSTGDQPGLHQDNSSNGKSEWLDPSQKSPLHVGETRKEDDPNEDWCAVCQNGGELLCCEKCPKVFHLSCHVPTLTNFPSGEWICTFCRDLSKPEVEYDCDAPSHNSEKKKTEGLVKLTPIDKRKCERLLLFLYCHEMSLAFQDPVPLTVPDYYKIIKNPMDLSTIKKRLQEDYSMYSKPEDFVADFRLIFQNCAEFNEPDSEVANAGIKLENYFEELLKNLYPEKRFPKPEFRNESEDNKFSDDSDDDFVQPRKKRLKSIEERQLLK
Chain of Protein polybromo-1 (Homo sapiens) (Q86U86 whole entry): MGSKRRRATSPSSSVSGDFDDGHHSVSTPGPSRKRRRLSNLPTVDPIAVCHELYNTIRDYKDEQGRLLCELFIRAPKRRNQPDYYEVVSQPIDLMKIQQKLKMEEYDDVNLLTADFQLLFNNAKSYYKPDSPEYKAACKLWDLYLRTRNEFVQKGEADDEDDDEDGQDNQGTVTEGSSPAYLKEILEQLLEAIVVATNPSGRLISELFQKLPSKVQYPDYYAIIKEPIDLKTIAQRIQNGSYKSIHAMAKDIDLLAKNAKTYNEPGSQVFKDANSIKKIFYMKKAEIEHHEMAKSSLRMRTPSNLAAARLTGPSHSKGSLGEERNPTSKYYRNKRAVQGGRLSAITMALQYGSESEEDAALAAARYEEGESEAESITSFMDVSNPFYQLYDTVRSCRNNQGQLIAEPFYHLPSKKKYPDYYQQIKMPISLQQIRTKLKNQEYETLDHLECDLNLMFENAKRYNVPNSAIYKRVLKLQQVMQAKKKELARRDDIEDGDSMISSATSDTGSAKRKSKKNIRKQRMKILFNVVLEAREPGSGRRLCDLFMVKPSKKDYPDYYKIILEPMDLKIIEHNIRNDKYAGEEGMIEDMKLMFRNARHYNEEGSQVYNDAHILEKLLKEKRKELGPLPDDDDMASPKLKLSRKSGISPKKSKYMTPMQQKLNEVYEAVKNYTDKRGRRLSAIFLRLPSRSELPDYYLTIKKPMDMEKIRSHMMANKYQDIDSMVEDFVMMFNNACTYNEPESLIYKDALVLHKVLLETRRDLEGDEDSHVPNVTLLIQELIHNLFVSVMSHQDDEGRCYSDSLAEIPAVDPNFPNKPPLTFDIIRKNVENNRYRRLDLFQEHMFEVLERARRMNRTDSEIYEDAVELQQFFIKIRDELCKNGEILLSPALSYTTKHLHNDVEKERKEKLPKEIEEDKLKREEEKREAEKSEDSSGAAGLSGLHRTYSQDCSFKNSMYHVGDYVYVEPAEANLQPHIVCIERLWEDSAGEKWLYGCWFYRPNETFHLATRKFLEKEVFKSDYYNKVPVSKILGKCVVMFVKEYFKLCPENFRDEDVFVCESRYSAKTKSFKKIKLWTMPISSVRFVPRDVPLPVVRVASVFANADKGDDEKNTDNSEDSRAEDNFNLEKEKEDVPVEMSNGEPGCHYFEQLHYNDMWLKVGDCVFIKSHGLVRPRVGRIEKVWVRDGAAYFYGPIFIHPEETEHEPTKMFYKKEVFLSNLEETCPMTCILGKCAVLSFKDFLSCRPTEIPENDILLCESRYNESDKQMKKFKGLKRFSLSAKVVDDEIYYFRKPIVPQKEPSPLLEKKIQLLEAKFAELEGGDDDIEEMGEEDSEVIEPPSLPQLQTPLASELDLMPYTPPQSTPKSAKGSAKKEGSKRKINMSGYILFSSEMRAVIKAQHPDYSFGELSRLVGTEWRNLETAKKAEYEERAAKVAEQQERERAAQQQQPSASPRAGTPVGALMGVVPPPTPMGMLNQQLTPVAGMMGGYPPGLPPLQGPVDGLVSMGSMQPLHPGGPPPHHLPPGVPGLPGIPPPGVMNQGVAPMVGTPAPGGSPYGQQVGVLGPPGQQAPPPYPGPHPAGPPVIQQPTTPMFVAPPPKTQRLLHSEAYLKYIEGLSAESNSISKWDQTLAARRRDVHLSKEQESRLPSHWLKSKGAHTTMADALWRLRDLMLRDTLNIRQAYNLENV

## COc1cc2c(cc1NS(=O)(=O)c1ccc(Br)cc1C)n(C)c(=O)n2C
[1]
  IC50: > 10 µM
Homo sapiens [2]
  ΔTm: 0.5 °C
[3]
  ΔTm: 0.6 °C
[4]
  ΔTm: 0.4 °C
Homo sapiens [5]
  ΔTm: 0.2 °C
Peregrin (Homo sapiens) [6]
  ΔTm: 6.5 °C
[7]
  ΔTm: 0.7 °C
[8]
  deltaH: -7.37 kcal/mol
Peregrin (Homo sapiens) [9]
  deltaG: -9.24 kcal/mol
[10]
  ΔTm: 0.3 °C
[11]
  Activity: 93.6%
[12]
  ΔTm: 0.9 °C
[13]
  ΔTm: 0.8 °C

— ChEMBL document CHEMBL5715956, “Selective Targeting of Bromodomains of the Bromodomain-PHD Fingers Family Impairs Osteoclast Differentiation” (ACS Chem Biol, 2017)
